According to patent publication US8828987B2, “Pyridine amide derivatives as EP4 receptor antagonists” (Rottapharm Biotech S.R.L., priority 2010, dated 2014):
Like-named read-outs stand apart in the source and are kept apart here.

Legend:
[1] = Pharmacokinetics in male Han Wistar rats, intravenous and oral; type: in vivo; settings: rat, 1.0 mg/kg; for half-life: read-out: t½* (converted)
Method: Determination of PK of the Invention Compounds
The pharmacokinetics of compounds E10, E16, E34, E38, E51, were studied in male Han Wistar rats. The rats were treated intravenously and orally (n=3 for each dose route) with a compounds formulated as solutions. The rats were fitted with a jugular cannula for serial sampling. A full profile was acquired for each rat. Plasma extracts were quantitatively analyzed using a specific and sensitive LC-MS/MS bioanalytical method. Inter-individual variations between the three rats in each group were limited (CV for pharmacokinetic parameters was below 50%).

[2] = molecular target: T1, human EP4 receptor (Homo sapiens, UniProt P35408); assay: [3H]-Prostaglandin E2 membrane binding assay (human EP4/HEK293 transfectant membranes); settings: [3H]-PGE2 1 nM, hEP4/HEK293 membranes; Ki by Cheng-Prusoff; read-out: Binding pKi (converted)
T1 construct: expressed in transfected cells; membrane fraction used
T1 sequence (P35408 whole entry): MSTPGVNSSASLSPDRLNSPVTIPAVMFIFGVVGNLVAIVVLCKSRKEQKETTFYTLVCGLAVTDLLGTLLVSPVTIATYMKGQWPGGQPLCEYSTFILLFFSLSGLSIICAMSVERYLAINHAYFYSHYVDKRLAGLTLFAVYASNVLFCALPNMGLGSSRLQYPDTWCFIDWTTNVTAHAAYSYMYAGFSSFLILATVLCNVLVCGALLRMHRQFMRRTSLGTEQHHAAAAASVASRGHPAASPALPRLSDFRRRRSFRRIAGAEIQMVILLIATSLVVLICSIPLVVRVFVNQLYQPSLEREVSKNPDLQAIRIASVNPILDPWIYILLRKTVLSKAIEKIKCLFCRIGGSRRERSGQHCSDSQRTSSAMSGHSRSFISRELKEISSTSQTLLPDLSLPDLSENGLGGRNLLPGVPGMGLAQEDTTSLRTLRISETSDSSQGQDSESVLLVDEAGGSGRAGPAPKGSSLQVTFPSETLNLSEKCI
From the text: (§1) Stable Expression of Human EP4 Receptors in the Human Embryonic Kidney (HEK293) Cell Line
(§2) The cDNA clone of human EP4 receptor (NM_000958.2) was obtained from Invitrogen™: Ultimate™ ORF Clone Collection—Clone ID IOH46525. The coding sequence was subcloned in expression vector pcDNA™6.2/V5-DEST by Gateway technology (Invitrogen™).
(§3) Human embryonic kidney cells (HEK-293) were stably transfected with expression vector for human EP4 receptor in according to the method described in FuGENE®6 Transfection Reagent's manual (Roche Applied Science®).
(§4) Preparation of Membrane Fraction:
(§5) The EP4 transfected cells were grown in Dulbecco's modified Eagle's medium containing 10% fetal bovine serum and 10 μg/ml Blasticidin S HCl (selection medium) at 37° C. in a humidified atmosphere of 5% CO2 in air.
(§6) For the membrane preparation, cells in flask were harvested by hypotonical/mechanical lysis with chilled (4° C.) TE buffer (5 mM TRIS, 5 mM etylenediamine tetra-acetic acid (EDTA), pH 7.4).
(§7) Cells were detached and lysed with 10 ml of hypotonic lysis buffer and by scraping. The cell lysate was vortexed for 30 sec and centrifuged at 40000×g at 4° C. for 22 min.
a) Membrane Binding Assay[3H]-Prostaglandin E2
The membrane pellet was resuspended in the same buffer (5 mM TRIS, 5 mM ethylenediamine tetra-acetic acid (EDTA), pH 7.4), and protein concentration was determined by Bradford method (Bio-Bad® assay).
This membrane preparation was stored at −80° C. freezer until use for binding assay.
([^3H]-PGE2) membranes binding assays toward hEP4 receptors (human EP4/HEK293 transfectant, see above) and hEP2 receptors (human EP2/HEK293 transfectant, purchased from PerkinElmer Inc) were performed in 10 mM MES-KOH buffer pH6, containing 10 mM MgCl2 and 1 mM CaCl2 for EP4 binding assay or 50 mM Tris-Cl, BSA 0.5% for EP2 binding assay (according to supplier indication).
Ten microgram of protein from membrane fractions were incubated in a total volume of 0.1 ml (EP4) or 0.2 ml (EP2) with 1 nM (EP4) or 3 nM (EP2) [^3H]-PGE2 (PerkinElmer Inc, 171 Ci/mmol). In both assays to determine the total binding or non specific binding, 1% DMSO or 1 μM prostaglandin E2 (EP4) or 100 μM (EP2) were added to reaction mixtures, respectively. Incubation was conducted in a polypropylene 96 multiwell for 90 min (EP4) or 60 min (EP2) at room temperature prior to separation of the bound and free radioligand by vacuum manifold rapid filtration on glass fiber filters (Unifilter GFB96, PerkinElmer Inc) pre-soaked in 0.3% polyethyleneimine. Filters were washed with ice cold buffer pH 7.4 (50 mM HEPES, NaCl 500 mM, BSA 0.1% for EP4 binding assay or 50 mM Tris-Cl for EP2 binding assays) and the residual [^3H]-PGE2 binding determined by solid scintillation counter (TopCount, PerkinElmer Inc).
The affinity (Ki) of each compound was calculated according to the Cheng-Prousoff equation: Ki=IC50/(1+([C]/Kd)). Results were expressed as pKi (−log 10 Ki (M)
Compounds of example 1 to 82 were tested according to method of example 83a in a final concentration range from 1 nM to 1 μM.

[3] = molecular target: T1, human EP4 receptor; assay: cAMP assay (AlphaScreen) on human EP4 membrane of transfected cells, antagonism of PGE2; type: biochemical; settings: HEK293 hEP4 cell membrane stimulated with PGE2 3 nM; read-out: functional IC50
From the text: as §1, §2, §3, §4, §5, §6, §7
b) cAMP Assay on Human EP4 Membrane of Transfected Cells.
The assay is based on the competition between endogenous cAMP and exogenously added biotinylated cAMP. The capture of cAMP is achieved by using a specific antibody conjugated to […] beads.
Cell membranes prepared as described above, were resuspended in 1 ml stimulation buffer (HBSS 1×+BSA 0.1%+IBMX 0.5 mM+HEPES 5 mM+MgCl2 10 mM+GTP 1 nM+GDP 10 μM+ATP 100 μM−pH 7.4). Cell membranes were dispensed into white 384-well microplates at final concentration of 1 μg/well and used for the determination of cAMP with the alphascreen cAMP functional assay (EnVision—PerkinElmer). Cell membrane/anti-cAMP Acceptor beads mix (5 μl) and a mixture of analysed compounds (dissolved in 100% DMSO to a final maximal concentration of 0.01% DMSO)/PGE2 (5 μl) were incubated at room temperature (22-23° C.) for 30 min in the dark. The Biotinylated-cAMP and donor beads (15 μl) were dispensed into each well to start the competition reaction. After 1 h incubation RT (22-23° C.) in the dark the plate was read using EnVision platform to determine the cAMP level (excitation: 680 nm; emission: 520,620 nm).
cAMP standard curve (concentration range from 1×10-6 to 1×10-11 M in. log intervals) with a negative control (no cAMP) a positive control:forskolin 10 μM
Antagonism studies were performed stimulating HEK293 cell membrane with PGE2 3 nM. The AlphaScreen signal is plotted as a function of log concentration of cAMP and functional IC50 is determined. IC50 value is calculated by linear regression.
Some compounds were tested according to method of example 83b.

SMILES	Ki [2] [nM]	IC50 [3] [nM]	other results
O=C(O)c1ccc(C2(NC(=O)c3cc(C(F)(F)F)cnc3N3CC(Nc4cccc(F)c4)C3)CC2)cc1 [E 49, 4-(1-(2-(3-((3-fluorophenyl)amino)azetidin-1-yl)-5-(trifluoromethyl)nicotinamido)cyclopropyl)benzoic acid]	25.1	69	
O=C(O)c1ccc(C2(NC(=O)c3cc(Cl)cnc3N3CCC(COc4cccc(F)c4)C3)CC2)cc1 (centres unmarked) [E 76, 4-(1-(5-chloro-2-(3-((3-fluorophenoxy)methyl)pyrrolidin-1-yl)nicotinamido)cyclopropyl)benzoic acid]	31.6	24	
O=C(O)c1ccc(C2(NC(=O)c3cc(Cl)cnc3N3CC(Oc4cccc(N5CCNCC5)c4)C3)CC2)cc1 [E 21, 4-(1-(5-chloro-2-(3-(3-(piperazin-1-yl)phenoxy)azetidin-1-yl)nicotinamido)cyclopropyl)benzoic acid]	63.1	191	
C[C@H](NC(=O)c1cc(Cl)cnc1N1CC(Oc2cccc(F)c2)C1)c1ccc(C(=O)O)cc1 [E 12, (S)-4-(1-(5-chloro-2-(3-(3-fluorophenoxy)azetidin-1-yl)nicotinamido)ethyl)benzoic acid]	15.8	102	
O=C(O)c1ccc(C2(NC(=O)c3cc(Cl)cnc3N3CC(C(=O)c4cccc(F)c4)C3)CC2)cc1 [E 25, 4-(1-(5-chloro-2-(3-(3-fluorobenzoyl)azetidin-1-yl)nicotinamido)cyclopropyl)benzoic acid]	63.1	135	
O=C(O)c1ccc(C2(NC(=O)c3cc(Cl)cnc3N3CC(Oc4cccc(OC(F)(F)F)c4)C3)CC2)cc1 [E 18, 4-(1-(5-chloro-2-(3-(3-(trifluoromethoxy)phenoxy)azetidin-1-yl)nicotinamido)cyclopropyl)benzoic acid]	12.6	22	
O=C(O)c1ccc(C2(NC(=O)c3cc(Cl)cnc3N3CCC(Oc4ccccc4)C3)CC2)cc1 (single isomer, unassigned) [E 60]	79.4	96.5	
O=C(O)c1ccc(C2(NC(=O)c3cc(C(F)(F)F)cnc3N3CC(Oc4ccc(F)c(C(F)(F)F)c4)C3)CC2)cc1 [E 42, 4-(1-(2-(3-(4-fluoro-3-(trifluoromethyl)phenoxy)azetidin-1-yl)-5-(trifluoromethyl)nicotinamido)cyclopropyl)benzoic acid]	3.16	35	
O=C(O)c1ccc(C2(NC(=O)c3cc(Cl)cnc3N3CC(Nc4cccc(C(F)(F)F)c4)C3)CC2)cc1 [E 31, 4-(1-(5-chloro-2-(3-((3-(trifluoromethyl)phenyl)amino)azetidin-1-yl)nicotinamido)cyclopropyl)benzoic acid]	7.94	47	

More lines, in order of falling IC50 [3], values ahead:

Ki [2] [nM]	IC50 [3] [nM]	SMILES	other results
31.6	126	O=C(O)c1ccc(C2(NC(=O)c3cc(F)cnc3N3CC(Oc4cccc(OC(F)(F)F)c4)C3)CC2)cc1 [E 55, 4-(1-(5-fluoro-2-(3-(3-(trifluoromethoxy)phenoxy)azetidin-1-yl)nicotinamido)cyclopropyl)benzoic acid]	
39.8	99	O=C(O)c1ccc(C2(NC(=O)c3cc(Cl)cnc3N3CC[C@H](Oc4cccc(F)c4)C3)CC2)cc1 [E 80, (S)-4-(1-(5-chloro-2-(3-(3-fluorophenoxy)pyrrolidin-1-yl)nicotinamido)cyclopropyl)benzoic acid]	
20	82	O=C(O)c1ccc(C2(NC(=O)c3cc(Cl)cnc3N3CC(Oc4ccc(F)c(C(F)(F)F)c4)C3)CC2)cc1 [E 17, 4-(1-(5-chloro-2-(3-(4-fluoro-3-(trifluoromethyl)phenoxy)azetidin-1-yl)nicotinamido)cyclopropyl)benzoic acid]	
10	46	Cc1cc(F)ccc1NC1CN(c2ncc(F)cc2C(=O)NC2(c3ccc(C(=O)O)cc3)CC2)C1 [E 56, 4-(1-(5-fluoro-2-(3-((4-fluoro-2-methylphenyl)amino)azetidin-1-yl)nicotinamido)cyclopropyl)benzoic acid]	
3.16	43	Cc1cc(F)ccc1NC1CN(c2ncc(Cl)cc2C(=O)NC2(c3ccc(C(=O)O)cc3)CC2)C1 [E 34, 4-(1-(5-chloro-2-(3-((4-fluoro-2-methylphenyl)amino)azetidin-1-yl)nicotinamido)cyclopropyl)benzoic acid]	AUC(0-inf) ([1]; male, Han Wistar, plasma, IV): 302 ng·h/mL; AUC(0-t) ([1]; male, Han Wistar, plasma, IV): 300 ng·h/mL; clearance ([1]; male, Han Wistar, plasma, IV, read-out: CLp* (converted)): 14.4 mL/min; Vd ([1]; male, Han Wistar, plasma, IV, read-out: Vss*): 0.227 L; half-life ([1]; male, Han Wistar, plasma, IV): 20.4 min; AUC(0-inf) ([1]; male, Han Wistar, plasma, PO): 128 ng·h/mL; AUC(0-t) ([1]; male, Han Wistar, plasma, PO): 125 ng·h/mL; Cmax ([1]; male, Han Wistar, plasma, PO): 98.1 ng/mL; Tmax ([1]; male, Han Wistar, plasma, PO): 15 min; half-life ([1]; male, Han Wistar, plasma, PO): 69.6 min; bioavailability ([1]; male, Han Wistar, plasma, po, 1 mg/kg, PO, read-out: F %): 42%; Tlast ([1]; IV): 2 h; Tlast ([1]; PO): 6 h
5.01	27	O=C(NC1(c2ccc(-c3nnn[nH]3)cc2)CC1)c1cc(Cl)cnc1N1CC(Oc2cccc(F)c2)C1 [E 82, N-(1-(4-(1H-tetrazol-5-yl)phenyl)cyclopropyl)-5-chloro-2-(3-(3-fluorophenoxy)azetidin-1-yl)nicotinamide]	
12.6	23	O=C(O)c1ccc(C2(NC(=O)c3cc(C(F)(F)F)cnc3N3CC(Nc4ccc(F)cc4)C3)CC2)cc1 [E 50, 4-(1-(2-(3-((4-fluorophenyl)amino)azetidin-1-yl)-5-(trifluoromethyl)nicotinamido)cyclopropyl)benzoic acid]	
3.16	10	O=C(O)c1ccc(C2(NC(=O)c3cc(C(F)(F)F)cnc3N3CC(Oc4ccc(F)c(F)c4)C3)CC2)cc1 [E 45, 4-(1-(2-(3-(3,4-difluorophenoxy)azetidin-1-yl)-5-(trifluoromethyl)nicotinamido)cyclopropyl)benzoic acid]	
